{"source": "ChEMBL document CHEMBL1151281", "about": "“Botcinins A, B, C, and D, metabolites produced by Botrytis cinerea, and their antifungal activity against Magnaporthe grisea, a pathogen of rice blast disease” (2005)", "note": "The source made the active and inactive calls. The rule behind the calls is not given here."}
{"test_system": "Pyricularia grisea", "assay": "Antifungal activity against Magnaporthe grisea IFO 30733 at 800 uM after 3 days", "type": "functional, organism-based", "conditions": "not given"}
{"compound": "CC(=O)O[C@H]1[C@@H](C)C(=O)O[C@H]2[C@H](C)[C@@H](O)[C@H](C)O[C@@]21C", "Activity": "inactive"}
{"test_system": "Pyricularia grisea", "assay": "Antifungal activity against Magnaporthe grisea IFO 30733 after 3 days", "type": "functional", "conditions": "IFO 30733, 72 h", "units": {"MIC": "µM"}}
{"compound": "CCCCCC[C@H](O)/C=C/C(=O)O[C@@H]1[C@@H](C)[C@@H]2OC(=O)[C@@H](C)[C@H](OC(C)=O)[C@@]2(C)O[C@H]1C", "note": "[BOTCININ C]", "MIC": 100}
{"compound": "CCCCCC[C@H](O)/C=C/C(=O)O[C@@H]1[C@@H](C)[C@@H]2OC(=O)[C@H](C)[C@H](OC(C)=O)[C@@]2(C)O[C@H]1C", "note": "[BOTCININ B]", "MIC": 12.5}
{"compound": "CCCC[C@H](O)/C=C/C(=O)O[C@@H]1[C@@H](C)[C@@H]2OC(=O)C(C)=C[C@@]2(C)O[C@H]1C", "note": "[BOTCININ D]", "MIC": 12.5}
{"compound": "CCCC[C@H](O)CCC(=O)O[C@@H]1[C@@H](C)[C@@H]2OC(=O)[C@H](C)[C@H](OC(C)=O)[C@@]2(C)O[C@H]1C", "MIC": 100}
{"compound": "CCCC[C@H](O)/C=C/C(=O)O[C@@H]1[C@@H](C)[C@@H]2OC(=O)[C@H](C)[C@H](OC(C)=O)[C@@]2(C)O[C@H]1C", "note": "[BOTCININ A]", "MIC": 100}
